This note sets out measurements from US4298739A, “Novel carbostyril derivatives” (priority 1977, dated 1981).

The test system of data set [1] is rabbit platelet. The data set can be described thus: Collagen-induced aggregation in rabbit platelets (AG-II Aggregometer). The data set is classed as cell-based. The note with it: Oryctolagus cuniculus, Platelet, read-out: Inhibition effect on collagen induced aggregation in rabbit platelet; for inhibition at 100 µM (stock): 10^-4 mole; for inhibition at 10 µM (stock): 10^-5 mole; for inhibition at 1 µM (stock): 10^-6 mole. As to the method: (§1) The platelet aggregation inhibitory effect is measured by using AG-II Aggregometer (manufactured by Bryston Manufacturing Co.). The blood sample used for the test is a 1/9 (by volume) mixture of sodium citrate and whole blood collected from rabbit. Said sample is subjected to 10-minute centrifugal separation at 1,000 r.p.m. to obtain a platelet rich plasma (PRP). The thus obtained PRP is separated, and the remaining blood sample is further subjected to 15-minute centrifugal separation at 3,000 r.p.m. to obtain a platelet poor plasma (PPP).
(§2) The number of platelets in the PRP is counted by the Brecher-Clonkite Method, and the PRP is diluted with the PPP to prepare a PRP sample with platelet concentration of 300,000/mm^3 for the adenosine diphosphate (ADP)-induced aggregation test. There is also prepared a PRP sample with platelet concentration of 450,000/mm^3 for the collagen-induced aggregation test.
(§3) 0.6 ml of said PRP sample is added into 0.01 ml of a solution of a test compound of a predetermined concentration and the mixture is placed in a 37° C. thermostat for one minute. Then 0.07 ml of an ADP or collagen solution is added to the mixture. Transmittance of this mixture is determined and the change of transmittance is recorded by using the aggregometer at stirrer speed of 1,100 r.p.m. In this test, Auren Beronal buffer (pH 7.35) is used for the preparation of the ADP or collagen solution. ADP is adjusted to a concentration of 7.5×10^-5 M, and the collagen solution is prepared by triturating 100 mg of collagen with 5 ml of said buffer and the supernatant is used as collagen inducer. Adenosine and acetylsalicylic acid are used as controls for the ADP-induced aggregation test and the collagen-induced aggregation test, respectively. The platelet aggregation inhibitory effect is measured in terms of percent inhibition with respect to the aggregation rate of the controls. The aggregation rate is calculated from the following formula:
(§4) Aggregation rate=(c-a)/(b-a)×100
(§5) b: transmittance of PRP containing a test compound and an aggregation inducer
(§6) The inhibitory effect of the tested compounds on collagen-induced aggregation in rabbit platelets is shown in Table 1, and such effect on ADP-induced aggregation is shown in Table 2. The compounds tested are as follows.

Data set [2] concerns rabbit platelet. Put plainly: ADP-induced aggregation in rabbit platelets (AG-II Aggregometer). The class given is cell-based. The following applies: Oryctolagus cuniculus, Platelet, read-out: Inhibition effect on ADP-induced aggregation in rabbit platelet; for inhibition at 100 µM (stock): 10^-4 mole; for inhibition at 10 µM (stock): 10^-5 mole; for inhibition at 1 µM (stock): 10^-6 mole. As to the method:
as §1, §2, §3, §4, §5, §6

The nature of data set [3]: Concentration in blood of male Wister rats. The data set is classed as in vivo. The note with it: 30 mg/kg water suspension; for concentration at 1 h / concentration at 2 h / concentration at 4 h / concentration at 6 h / concentration at 8 h / concentration at 12 h: rat, plasma, 30 mg/kg; for Concentration in blood: Rat. As to the method:
(§7) A water suspension of test compound was administered at the dose of 30 mg/kg to the overnight fasted male Wister rats and male beagle dogs, and after a predetermined period of time, blood was collected from said animals to obtain plasma. 2 to 3 Milliliters of 0.1 N-NaOH and 2 ml of CHCl3 were added to 1 ml of the obtained plasma, and the mixture was shaken and extracted in a shaker for 2 hours, and after centrifugal separation, the organic layer was washed with 2 ml of 0.1 N-HCl. This organic layer was then subjected to a freezing and thawing treatment, and after evaporating chloroform under nitrogen stream, the residue was redissolved in 100 μl of chloroform and spotted on a thin layer plate of "Silica Gel 60 F254 " manufactured by Merck & Co., Inc. This was developed in a chloroform: butanol mixed solvent (5:1) and determined by measuring the spots with same Rf value as the test compound according to the absorbance method by using Shimazu CS-910 Thin Layer Chromato-scanner,and therefrom the concentration (μg/ml) of test compound A in blood was determined.

Data set [4] in a line: Concentration in blood of male beagle dogs. The class given is in vivo. The following applies: 30 mg/kg water suspension; for concentration at 1 h / concentration at 2 h / concentration at 4 h / concentration at 6 h / concentration at 8 h / concentration at 12 h: dog, plasma, 30 mg/kg; for Concentration in blood: Beagle dog. As to the method:
as §7

Data set [5] in a line: Acute toxicity test, oral administration to mice. The class given is in vivo. The following applies: mouse, in vivo, Male mice. As to the method: The test compounds were administered orally to the mice and LD50 (mg/kg) of the compounds was determined.

On to `O=C1CCc2cc(OCCCC(=O)N(C3CCCCC3)C3CCCCC3)ccc2N1` [compound 18, 6-[3-(N,N-Dicyclohexylaminocarbonyl)propoxy]-3,4-dihydrocarbostyril], for which, in the data set on rabbit platelet [1], the inhibition at 100 µM (stock) came to 87.5%, the inhibition at 10 µM (stock) was 59.4% and the inhibition at 1 µM (stock) was 50%. Also, in the data set with rabbit platelet [2], the inhibition at 100 µM (stock) came to 86.4%, the inhibition at 10 µM (stock) is 37.5% and the inhibition at 1 µM (stock) was determined as 12.6%. Moreover, in data set [3], the concentration at 1 h was 1320 ng/mL, the concentration at 6 h amounted to 690 ng/mL, the concentration at 8 h turned out to be 560 ng/mL and the concentration at 12 h is 420 ng/mL. The compound also returned a concentration at 2 h in data set [3] (2 hr.) of 1740 ng/mL. The compound also showed a concentration at 4 h in data set [3] (4 hr.) of 1020 ng/mL. For the same compound, the concentration at 1 h in data set [4] (1 hr.) is 360 ng/mL. The concentration at 2 h in data set [4] (2 hr.) is 230 ng/mL. Besides, in data set [4] (4 hr.), the concentration at 4 h was found to be 320 ng/mL. In data set [4], the concentration at 6 h was determined as 170 ng/mL, the concentration at 8 h came out at 130 ng/mL and the concentration at 12 h amounted to 60 ng/mL. In addition, the LD50 in data set [5] is more than 1000 mg/kg.
For `CN(C(=O)CCCOc1cccc2c1CCC(=O)N2)C1CCCCC1` [compound 23, 5-[3-(N-Methyl-N-cyclohexylaminocarbonyl)propoxy]-3,4-dihydrocarbostyril], in the data set on rabbit platelet [1], the inhibition at 100 µM (stock) was found to be 76.5%, the inhibition at 10 µM (stock) amounted to 58.7% and the inhibition at 1 µM (stock) is 13.5%. In addition, in the data set with rabbit platelet [2], the inhibition at 100 µM (stock) turned out to be 73.6%, the inhibition at 10 µM (stock) is 26.1% and the inhibition at 1 µM (stock) is 8.7%. In data set [3], the concentration at 1 h was determined as 1530 ng/mL, the concentration at 6 h worked out at 540 ng/mL, the concentration at 8 h was found to be 390 ng/mL and the concentration at 12 h is 520 ng/mL. Besides, in data set [3] (2 hr.), the concentration at 2 h was found to be 2240 ng/mL. For the same compound, the concentration at 4 h in data set [3] (4 hr.) amounted to 940 ng/mL. In data set [4] (1 hr.), this compound showed a concentration at 1 h of 430 ng/mL. This compound had a concentration at 2 h in data set [4] (2 hr.) of 290 ng/mL. The compound further had a concentration at 4 h in data set [4] (4 hr.) of 210 ng/mL. In data set [4], this compound displayed a concentration at 6 h of 140 ng/mL, a concentration at 8 h of 50 ng/mL and a concentration at 12 h of 70 ng/mL. In addition, the LD50 in data set [5] was more than 1000 mg/kg.
On to `CCN(C(=O)CCCOc1ccc2[nH]c(=O)ccc2c1)c1ccccc1` [compound 20, 6-[3-(N-Ethylanilinocarbonyl)propoxy]carbostyril], for which, in the data set with rabbit platelet [1], the inhibition at 100 µM (stock) turned out to be 91.3%, the inhibition at 10 µM (stock) turned out to be 76.3% and the inhibition at 1 µM (stock) stood at 43.2%. Also, in the data set on rabbit platelet [2], the inhibition at 100 µM (stock) came out at 82.5%, the inhibition at 10 µM (stock) was found to be 31.7% and the inhibition at 1 µM (stock) worked out at 13.5%. In addition, in data set [3], the concentration at 1 h was 950 ng/mL, the concentration at 6 h amounted to 460 ng/mL and the concentration at 12 h worked out at 280 ng/mL. The compound also displayed a concentration at 2 h in data set [3] (2 hr.) of 1370 ng/mL. The same compound displayed a concentration at 4 h in data set [3] (4 hr.) of 920 ng/mL. Besides, in data set [4] (1 hr.), the concentration at 1 h worked out at 320 ng/mL. Further, in data set [4], the concentration at 6 h was found to be 80 ng/mL and the concentration at 8 h was 50 ng/mL. The compound also showed an LD50 in data set [5] of more than 1000 mg/kg.
With `CC1CCCCC1N(C)C(=O)CCCOc1ccc2[nH]c(=O)ccc2c1` (centres unmarked) [compound 1, 6-{3-[N-Methyl-N-(2-methylcyclohexyl)aminocarbonyl]propoxy}carbostyril], the inhibition at 10 µM (stock) in the data set on rabbit platelet [1] is 100%; with rabbit platelet [2] it was 73%. In addition, the inhibition at 1 µM (stock) in the data set with rabbit platelet [1] is 100%; with rabbit platelet [2] it was 42.4%. The inhibition at 0.1 µM (stock) with rabbit platelet [1] (10^-7 mole) amounted to 21.1%; in the data set with rabbit platelet [2] (10^-7 mole), 4.3%. Also, the inhibition at 100 µM (stock) in the data set with rabbit platelet [2] turned out to be 100%. For the same compound, the concentration at 1 h stood at 1050 ng/mL in data set [3] and 280 ng/mL in data set [4] (1 hr.). The values for the concentration at 2 h in data set [3] (2 hr.) and in data set [4] (2 hr.) were 1620 ng/mL and 310 ng/mL, respectively. For the same compound, the concentration at 4 h came out at 940 ng/mL in data set [3] (4 hr.) and 210 ng/mL in data set [4] (4 hr.). In addition, the concentration at 6 h came out at 530 ng/mL in data set [3] and 130 ng/mL in data set [4]. Moreover, the concentration at 12 h in data set [3] is 480 ng/mL; in data set [4], 50 ng/mL. In data set [4], this compound gave a concentration at 8 h of 80 ng/mL. Moreover, in data set [5], the LD50 is more than 1000 mg/kg.
Take `CCOC(=O)CCCOc1ccc2[nH]c(=O)ccc2c1` [compound 34, 6-(3-Ethoxycarbonylpropoxy)carbostyril, reference compound]: the inhibition at 100 µM (stock) with rabbit platelet [1] and in the data set on rabbit platelet [2] was 100% in each case. The inhibition at 10 µM (stock) in the data set with rabbit platelet [1] was 86%; in the data set with rabbit platelet [2], 90%. For the same compound, the inhibition at 1 µM (stock) in the data set on rabbit platelet [1] came out at 18%; in the data set with rabbit platelet [2] it was 25%. For the same compound, the Concentration in blood in data set [3] (2 hr.), in data set [3] (4 hr.), in data set [4] (1 hr.) and in data set [4] (2 hr.) was 0 ng/mL each time. The compound further showed a concentration at 1 h in data set [3] of 10 ng/mL. For the same compound, the LD50 in data set [5] is more than 1000 mg/kg.
On to `CCOC(=O)CCCOc1ccc2c(c1)CCC(=O)N2` [compound 29, 6-(3-Ethoxycarbonylpropoxy)-3,4-dihydrocarbostyril, reference compound], for which the inhibition at 10 µM (stock) in the data set with rabbit platelet [1] was 38%. In addition, the inhibition at 1 µM (stock) in the data set with rabbit platelet [1] is 8%; in the data set on rabbit platelet [2], 10%. The inhibition at 100 µM (stock) with rabbit platelet [2] turned out to be 100%. Also, the Concentration in blood in data set [3] (2 hr.), in data set [3] (4 hr.), in data set [4] (2 hr.) and in data set [4] (4 hr.) was 0 ng/mL each time. Moreover, the concentration at 1 h in data set [3] and in data set [4] (1 hr.) was 10 ng/mL in each case. The LD50 in data set [5] is more than 1000 mg/kg.
